Source: publication PMC9820303, “^αN-Acetyl β-Endorphin Is an Endogenous Ligand of σ1Rs That Regulates Mu-Opioid Receptor Signaling by Exchanging G Proteins for σ2Rs in σ1R Oligomers” (International Journal of Molecular Sciences, 2022)
No end group written: not given here.

Assays:
σ1R-NR1 C1 = target: T1, σ1R-NR1 C1 (Mus musculus, UniProt O55242); experiment: In vitro σ1R-NR1 C1 association of recombinant proteins (Western blot); type: biochemical, murine; details: increasing concentrations; 30 min RT; vs control without ligand
T1 construct: The coding region of the full-length murine σ1R (AF004927); GST (N, cleaved yes); made in house; host or cells: E. coli BL21 (KRX)
T1 sequence (O55242 whole entry): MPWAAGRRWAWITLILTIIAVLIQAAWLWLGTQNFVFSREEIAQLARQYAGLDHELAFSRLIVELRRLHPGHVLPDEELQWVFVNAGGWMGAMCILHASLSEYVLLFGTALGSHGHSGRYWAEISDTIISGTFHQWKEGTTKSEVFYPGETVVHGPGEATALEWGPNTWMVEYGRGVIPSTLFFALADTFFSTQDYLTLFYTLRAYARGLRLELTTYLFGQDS
Protocol: (§1) Figure 7 Effect of β-End 1–31, ^αN-acetyl β-End 1–31 and their N-terminal derivatives on σ1R-σ2R, σ1R-NR1 C1 and σ1R-BiP associations. Amino acid sequence of β-End 1–31 showing derivatives 1–26 and 1–27. (A) HaloLink-attached σ2Rs were incubated for 30 min at RT in the presence of σ1Rs (100 nM) in 300 μL of 50 mM Tris-HCl (pH 7.4), 0.2% CHAPS, and 2.5 mM CaCl2. After removing the unbound σ1R proteins, the effects of increasing the peptide concentrations on σ1R-σ2R associations were studied. At the end of the incubation, protein complexes bound to HaloLink-σ2R were obtained by centrifugation, washed three times, solubilized in 2× Laemmli buffer containing β-mercaptoethanol, resolved by SDS-PAGE, and analyzed by Western blotting (for more details, see Section 4). This protocol was also used to assess the effect of ligands on (B) σ1R-NR1 C1 and (C) σ1R-BiP associations. Data were compared to that of the control, which was obtained in the absence of ligands. (A–C) Data are the mean ± SD, n = 3. (D) The β-End 1–31 structural models were predicted by Novafold (DNASTAR Lasergene protein v.17, Inc., Madison, WI, USA). Ribbon model: The 3D structure, charge distribution and hydrophobicity map of β-End 1–31 are shown. Positive charges are shown in red and negative charges in blue. Polar surfaces are shown in yellow, and nonpolar surfaces are shown in orange. Linear model: the opioid (1–5) and flexible region (8–11) sequences are shown in green and orange, respectively, and the amphiphilic helix (15–25) is shown in pink.
(§2) The recombinant σ1R (100 nM) was incubated either with Haloprotein (negative control) or together with the immobilized σ2R, NR1 C0-C1-C2 or BiP proteins in 300 µL of a buffer containing 50 mM Tris-HCl (pH 7.4) and 0.2% CHAPS in the presence of 2.5 mM CaCl2 for 30 min at RT. After removal of the unbound σ1R, the agarose-attached complexes were incubated for 30 min with rotation at RT in the presence of increasing concentrations of the ligands in a final reaction volume of 300 µL [50 mM Tris-HCl (pH 7.4), 2.5 mM CaCl2 and 0.2% CHAPS]. Ligands were usually dissolved in aqueous solutions; however, when an organic solvent such as DMSO was required to incorporate, e.g., pregnenolone sulfate, the solvent remained below 1% in the assay buffer. Agarose pellets containing the bound proteins were obtained by centrifugation, washed and resuspended thrice in the presence of 2.5 mM CaCl2, solubilized in 2× Laemmli buffer plus β-mercaptoethanol, and analyzed by Western blotting.
(§3) Because all the assays were performed with recombinant proteins, the immune signals provided a single band of the expected size, which was used for the subsequent densitometry analysis. Accordingly, no other regions of the blots provided information and were routinely excluded from the analysis.
Figure S8. Effect of the physiological and nonphysiological sequences of β-End 1-31 and classical σ1R ligands on BiP-σ1R, σ2R-σ1R and NR1 C1-σ1R associations . […]
D) Agarose-NR1 C1 loaded with […]
σ1Rs were incubated in the absence (control) and with nonphysiological derivatives of β-End 1-31. A-D) The σ1Rs that remained attached to the agarose complexes were evaluated by Western blotting. The […]
(§4) (1 picture or pasted object on this page, not shown here)
Figure S9. Effect of σ1R agonist/antagonist ligands on σ1R-NR1 C1 associations. Θ-Agarose-NR1 C1 was loaded with recombinant σ1Rs. After unbound σ1R proteins were removed, the complexes were incubated with (A) 1 nM β-End 1-31, (B) αN-acetyl β-End 1-31, (C-D) β-End 28-31 in the absence (black columns) and presence of (A) 10 nM or (B-D) increasing concentrations of competing σ1R ligands as indicated. The σ1Rs that remained attached to the Θ-σ2Rs were evaluated by Western blotting. The […]
Prog is progesterone; PregSulfate is pregnenolone sulfate; Nac is […]

σ1R-BiP = target: T2, σ1R-BiP (Mus musculus, UniProt O55242); experiment: In vitro σ1R-BiP association of recombinant proteins (Western blot); type: biochemical; details: for effect on σ1R-BiP association: increasing concentrations, 30 min RT, vs control without ligand
T2 construct: The coding region of the full-length murine σ1R (AF004927); GST (N, cleaved yes); host or cells: E. coli BL21 (KRX) for σ1R
T2 sequence (O55242 whole entry): as above
Protocol: as §1, §2, §3
Figure S8. Effect of the physiological and nonphysiological sequences of β-End 1-31 and classical σ1R ligands on BiP-σ1R, σ2R-σ1R and NR1 C1-σ1R associations . Agarose-BiP was loaded with σ1Rs, and after the unbound σ1Rs were removed, the agarose-BiP-σ1R complexes were incubated in the absence (control) and presence of increasing concentrations of (A) β-End 1-31 C-terminal physiological derivatives and (B) classical σ1R ligands. C) Agarose-σ2R loaded with σ1Rs was incubated in the absence (control) and with nonphysiological derivatives of β-End 1-31. D) Agarose-NR1 C1 loaded with σ1Rs were incubated in the absence (control) and with nonphysiological derivatives of β-End 1-31. A-D) The σ1Rs that remained attached to the agarose complexes were evaluated by Western blotting. The […]
as §4
Figure S10. Effect of σ1R agonist/antagonist ligands on σ1R-BiP associations. Agarose-attached BiP proteins were incubated for 30 min in the presence of recombinant σ1R (100 nM) proteins in 300 μL of 50 mM Tris-HCl (pH 7.4), 0.2% CHAPS, and 2.5 mM CaCl2. After the unbound σ1R proteins were […]

σ1R-σ2R = σ1R-σ2R (Mus musculus, UniProt O55242); experiment: In vitro σ1R-σ2R association of recombinant proteins (HaloLink-σ2R, Western blot); type: biochemical, murine; design: The coding region of the full-length murine σ1R (AF004927); GST (N, cleaved yes); made in house; host or cells: E. coli BL21 (KRX); details: increasing concentrations; 30 min RT; vs control without ligand
σ1R-σ2R, sequence (O55242 whole entry): as above
Protocol: as §1, §2, §3
Figure S7. Effect of σ1R agonist/antagonist ligands on σ1R-σ2R heterodimers. (A-C) Agarose (Θ)- attached σ2Rs captured recombinant σ1Rs. After removing unbound σ1R proteins, the Θ-σ2R.σ1R complexes were incubated with a ﬁxed concentration of a selected L1 ligand (indicated in brackets) in the absence and presence of increasing concentrations of competing σ1R ligands as indicated. The σ1Rs that remained attached to the Θ-σ2Rs were evaluated by Western blotting. * Signiﬁcant differences with respect to the control group that was incubated without L1 ligands. ANOVA followed by the Holm-Sidak multiple comparisons test, p < 0.05. For details, see Methods and Figure 6A. Representative blots are […]
Figure S8. Effect of the physiological and nonphysiological sequences of β-End 1-31 and classical σ1R ligands on BiP-σ1R, σ2R-σ1R and NR1 C1-σ1R associations . Agarose-BiP was loaded with σ1Rs, and after the unbound σ1Rs were removed, the agarose-BiP-σ1R complexes were incubated in the absence (control) and presence of increasing concentrations of (A) β-End 1-31 C-terminal physiological derivatives and (B) classical σ1R ligands. C) Agarose-σ2R loaded with σ1Rs was incubated in the […]

With `CC(=O)[C@H]1CC[C@H]2[C@@H]3CCC4=CC(=O)CC[C@]4(C)[C@H]3CC[C@]12C` [progesterone, Progesterone, reference compound] the “effect on σ1R-NR1 C1 association” value (σ1R-NR1 C1) was “did the opposite”, the “effect on σ1R-BiP association” value (σ1R-BiP) was “did the opposite” and the “effect on σ1R-σ2R association” value (σ1R-σ2R) was “did the opposite”.

With “Pregnenolone sulfate [reference compound]” the “effect on σ1R-NR1 C1 association” value (σ1R-NR1 C1) was “increased σ1R-NR1 C1 complexes”, the “effect on σ1R-BiP association” value (σ1R-BiP) was “impaired σ1R associations with σ2R and BiP” and the “effect on σ1R-σ2R association” value (σ1R-σ2R) was “impaired σ1R associations with σ2R and BiP”.

“^αN-acetyl β-End 1–26: ^αN-acetylated form of β-End 1–26 (Ac-YGGFMTSEKSQTPLVTLFKNAIIKNA; UniProt P01189 237-262, looked up, fragment)” was tested, and the “effect on σ1R-NR1 C1 association” value (σ1R-NR1 C1) was “separated σ1Rs from NR1 C1 subunits at pM concentrations”, the “activity at σ1R-BiP against agonists / β-End 1–31” value (σ1R-BiP; 1 nM β-End 1–31 with increasing competitor (Figure S10)) was “antagonist activity” and the “effect on σ1R-BiP association” value (σ1R-BiP) was “promoted σ1R-BiP complexes”.
